Here are results for 3 molecules from patent US11098055B2, “Ester ACC inhibitors and uses thereof” (Gilead Apollo, LLC, priority 2015, dated 2021).

Holding throughout (format): cell-based
For assay [1], the system named is Rhizoctonia solani (Rs). The assay can be described thus: Growth inhibition assay of fungal pathogens. Particulars: 48 h, read-out: Concentration at 90% Inhibition Rs. In short, it runs like this: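 Percent growth inhibition is scored at 48 h, by OD600 (blank-subtracted) and visual rating against the 2% DMSO control. Compounds were tested at final 50, 10, 2 ppm or 2, 0.4, 0.08 ppm on pathogen spores diluted in 17% V8 medium; mycelial plugs in ¼ PDB were used for Rhizoctonia.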

The test system of assay [2] is Phytophthora capsici (Pc). Kind of assay: Growth inhibition assay of fungal pathogens. The following applies: 48 h, read-out: Concentration at 90% Inhibition Pc. In short, it runs like this: (§1)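 Inoculum density for each fungus is set from 48 h growth curves, and spores are suspended in 17% V8 liquid medium. Compounds are added to final 50, 10, 2 ppm or 2, 0.4, 0.08 ppm. Plates are read by OD600 at 24 and 48 h; inhibition is scored at 48 h versus 2% DMSO.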

Assay [3] has as its system Botrtyis cinerea (Bc). The assay can be described thus: Growth inhibition assay of fungal pathogens. The following applies: 48 h, read-out: Concentration at 90% Inhibition Bc. The method in brief: as §1
In assay [4] the test system is Fusarium virguliforme (Fv). Kind of assay: Growth inhibition assay of fungal pathogens. Particulars: 48 h, read-out: Concentration at 90% Inhibition Fv. The method in brief: as §1
The test system of assay [5] is Fusarium moniliforme (Fm). The assay can be described thus: Growth inhibition assay of fungal pathogens. The following applies: Fusarium verticillioides, 48 h, read-out: Concentration at 90% Inhibition Fm. The method in brief: as §1
For assay [6], the system named is Collectotrichum graminicola (Cg). Kind of assay: Growth inhibition assay of fungal pathogens. The following applies: 48 h, read-out: Concentration at 90% Inhibition Cg. In short, it runs like this: as §1
Assay [7] concerns Septoria tritici (St). The assay can be described thus: Growth inhibition assay of fungal pathogens. Particulars: Zymoseptoria tritici, 48 h, read-out: Concentration at 90% Inhibition St. In short, it runs like this: as §1
The test system of assay [8] is Diplodia maydis (Dm). Kind of assay: Growth inhibition assay of fungal pathogens. Particulars: Stenocarpella maydis, 48 h, read-out: Concentration at 90% Inhibition Dm. In short, it runs like this: as §1
For assay [9], the system named is C. parapsilosis ATCC 22019. Kind of assay: Anti-Fungal (Candida) Activity Assay, broth microtiter MIC. The following applies: Lodderomyces parapsilosis, ATCC22019, 48 h, 3 replicates, MIC read at 48 h. The method in brief:
(§2)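 Broth microdilution per CLSI M27-A3 in RPMI 1640 + MOPS, at a final inoculum of 2.5×10^3 CFU/mL. Compound DMSO stocks were diluted in water to a 128 μg/mL working solution. MIC was read visually against the growth control at 48 h.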

For assay [10], the system named is C. albicans ATCC 90028. The assay is described as above. Particulars: ATCC90028, 48 h, 3 replicates, MIC read at 48 h. In short, it runs like this:
as §2

The structures appear in SMILES notation. ≈ marks a conversion by molar mass, not a printed value. Read-outs that look alike come from different tables or passages of the source.

Turning to `CCOC(=O)c1sc2c(c1C)c(=O)n(C(C)(C)C(=O)NC(C)C)c(=O)n2C[C@H](OCCC#N)c1cc(F)ccc1OC` [Compound I-15, (R)-ethyl 1-(2-(2-cyanoethoxy)-2-(5-fluoro-2-methoxy-phenyl)ethyl)-3-(1-(isopropylamino)-2-methyl-1-oxopropan-2-yl)-5-methyl-2,4-dioxo-1,2,3,4-tetrahydrothieno[2,3-d]pyrimidine-6-carboxylate], the IC90 in assay [1] (Table 4a) was 0.08 µg/mL (≈ 0.133 µM); in assay [1] (Table 4b), 0.08 µg/mL (≈ 0.133 µM); in assay [2] (Table 4a) it was not below 50 µg/mL; in assay [2] (Table 4b), 10 µg/mL (≈ 16.6 µM); in [3] (Table 4a), 0.4 µg/mL (≈ 0.664 µM); in assay [3] (Table 4b), 0.4 µg/mL (≈ 0.664 µM). Also, the IC90 in [4] (Table 4a) worked out at 0.4 µg/mL (≈ 0.664 µM); in assay [4] (Table 4b), 0.4 µg/mL (≈ 0.664 µM); in assay [5] (Table 4a), 0.08 µg/mL (≈ 0.133 µM); in [5] (Table 4b), 0.08 µg/mL (≈ 0.133 µM); in assay [6] (Table 4a), 0.08 µg/mL (≈ 0.133 µM); in assay [6] (Table 4b), 0.08 µg/mL (≈ 0.133 µM). Also, the IC90 in [7] (Table 4a) was not below 50 µg/mL; in assay [7] (Table 4b), 10 µg/mL (≈ 16.6 µM); in [8] (Table 4a), 0.08 µg/mL (≈ 0.133 µM); in [8] (Table 4b), 0.08 µg/mL (≈ 0.133 µM). Further, the MIC in assay [9] (Table 3a) is 0.25 to 1 µg/mL (≈ 0.415 to 1.66 µM); in assay [9] (Table 3b (additional results)) it was 2.1 to 4 µg/mL (≈ 3.48 to 6.64 µM); in assay [10] (Table 3a), 0.25 to 1 µg/mL (≈ 0.415 to 1.66 µM); in assay [10] (Table 3b (additional results)), 0.25 to 1 µg/mL (≈ 0.415 to 1.66 µM).
For `CCOC(=O)c1sc2c(c1C)c(=O)n(C(C)(C)C(=O)N1CCCC1)c(=O)n2C[C@H](OCCC#N)c1cc(F)ccc1OC` [Compound I-16, (R)-ethyl 1-(2-(2-cyanoethoxy)-2-(5-fluoro-2-methoxy-phenyl)ethyl)-5-methyl-3-(2-methyl-1-oxo-1-(pyrrolidin-1-yl)propan-2-yl)-2,4-dioxo-1,2,3,4-tetrahydrothieno[2,3-d]pyrimidine-6-carboxylate], the IC90 was 0.4 µg/mL (≈ 0.651 µM) in assay [1] (Table 4a); 0.4 µg/mL (≈ 0.651 µM) in assay [1] (Table 4b); not below 50 µg/mL in [2] (Table 4a); not below 50 µg/mL in [2] (Table 4b); 2 µg/mL (≈ 3.25 µM) in [3] (Table 4a); 2 µg/mL (≈ 3.25 µM) in assay [3] (Table 4b). Moreover, the IC90 in assay [4] (Table 4a) is 2 µg/mL (≈ 3.25 µM); in assay [4] (Table 4b) it was 2 µg/mL (≈ 3.25 µM); in [5] (Table 4a) it was 0.08 µg/mL (≈ 0.13 µM); in [5] (Table 4b), 0.08 µg/mL (≈ 0.13 µM); in assay [6] (Table 4a), 2 µg/mL (≈ 3.25 µM); in [6] (Table 4b), 2 µg/mL (≈ 3.25 µM). Besides, the IC90 in assay [7] (Table 4a) was not below 50 µg/mL; in assay [7] (Table 4b), not below 50 µg/mL; in assay [8] (Table 4a), 2 µg/mL (≈ 3.25 µM); in [8] (Table 4b), 2 µg/mL (≈ 3.25 µM). Moreover, the MIC in [9] (Table 3a) is more than 4.1 µg/mL; in [9] (Table 3b (additional results)), 0.25 to 1 µg/mL (≈ 0.407 to 1.63 µM); in assay [10] (Table 3a) it was more than 4.1 µg/mL; in assay [10] (Table 3b (additional results)), 2.1 to 4 µg/mL (≈ 3.42 to 6.51 µM).
On to `CCOC(=O)c1sc2c(c1C)c(=O)n(C(C)(C)C(N)=O)c(=O)n2C[C@H](OCCO)c1cc(F)ccc1OC` [Compound I-17, (R)-ethyl 3-(1-amino-2-methyl-1-oxopropan-2-yl)-1-(2-(5-fluoro-2-methoxyphenyl)-2-(2-hydroxyethoxy)ethyl)-5-methyl-2,4-dioxo-1,2,3,4-tetrahydro-thieno[2,3-d]pyrimidine-6-carboxylate], for which the IC90 was 2 µg/mL (≈ 3.63 µM) in [1] (Table 4a); 2 µg/mL (≈ 3.63 µM) in assay [1] (Table 4b); not below 50 µg/mL in [2] (Table 4a); not below 50 µg/mL in assay [2] (Table 4b); not below 50 µg/mL in assay [3] (Table 4a); 10 µg/mL (≈ 18.1 µM) in assay [3] (Table 4b). For the same molecule, the IC90 is not below 50 µg/mL in [4] (Table 4a); not below 50 µg/mL in assay [4] (Table 4b); 2 µg/mL (≈ 3.63 µM) in assay [5] (Table 4a); 2 µg/mL (≈ 3.63 µM) in assay [5] (Table 4b); not below 50 µg/mL in assay [6] (Table 4a); not below 50 µg/mL in assay [6] (Table 4b). For the same molecule, the IC90 in [7] (Table 4a), in assay [7] (Table 4b), in assay [8] (Table 4a) and in assay [8] (Table 4b) was not below 50 µg/mL each time. Moreover, the MIC in [9] (Table 3a) is more than 4.1 µg/mL; in assay [9] (Table 3b (additional results)) it was 1.1 to 2 µg/mL (≈ 1.99 to 3.63 µM); in assay [10] (Table 3a), more than 4.1 µg/mL; in assay [10] (Table 3b (additional results)), 2.1 to 4 µg/mL (≈ 3.81 to 7.25 µM).
